Experimental data as given in patent publication US9334278B2, “Pyrrolo[2,3-B]pyrazines as SYK inhibitors” (Hoffmann-La Roche Inc., priority 2012, dated 2016).
Like-named read-outs stand apart in the source and are kept apart here.

Key:
[1] = target: recombinant human SYK360-635 (Spleen Tyrosine Kinase) (Homo sapiens (Human), UniProt P43405); assay: SYK kinase assay (33P filtration, IC50 of SYK inhibition)
Procedure: Determination of IC50 of Spleen Tyrosine Kinase (SYK) inhibition:
SYK kinase assay is a standard kinase assay adapted to a 96 well plate format. This assay is performed in 96-well format for IC50 determination with 8 samples which represented 10 half log dilutions and a 40 μL reaction volume. The assay measures the incorporation of radiolabeled ^33P γATP into an N-terminally biotinylated peptide substrate, derived from naturally occurring phosphoacceptor consensus sequence (Biotin-11aa DY*E). Phosphorylated products were detected upon termination of reactions with EDTA and the addition of Streptavidin coated beads.
BSA: Bovine Serum Albumin Fraction V, fatty acid free (Roche Diagnostics GmbH, Cat. No. 9100221) diluted to a final concentration of 0.1%
Assay Dilution Buffer (ADB): 50 mM HEPES, 0.1 mM EGTA, 0.1 mM Na Vanadate, 0.1 mM (3-glycerophosphate, 10 mM MgCl2, 1 mM DTT, 0.1% BSA, pH 7.5
Bead wash buffer: 10 g/L PBS (Phosphate buffered saline) with 2M NaCl+1% phosphoric acid.
DMSO and the mixture was incubated for 10 min at RT.
The kinase reaction was initiated by the addition of 10 μL 4× substrate cocktail containing the DYE peptide substrate [0 or 5 μM], ATP [20 μM] and ^33PγATP [2 μCi/r×n]. After incubation at 30° C. for 15 min, the reaction was terminated by the transfer of 25 μL of the reaction sample to a 96 well 0.65 μm Millipore MADVNOB membrane/plate containing 200 μL 5 mM EDTA and 20% Streptavidine coated beads in PBS.
The unbound radionucleotides were washed under vacuum with 3×250 μL 2M NaCl; 2×250 μL 2M NaCl+1% phosphoric acid; 1×250 μL H2O. After the last wash membrane/plates were transferred to an adaptor plate, heat dried for 15 min at 60° C., and 50 μL scintillation cocktail was added to each well and 4 h later the amount of radioactivity was counted in a top counter.

[2] = system: Human B cell lymphoma cell line Ramos; assay: Ramos Calcium Influx FLIPR Assay; format: cell-based; conditions: Ramos cells, anti-human IgM 10 μg/mL stimulation, read-out: RAMOS_IC50
Procedure: Ramos Calcium Influx FLIPR Assay
Human B cell lymphoma cell line Ramos was cultivated in RPMI-1640 with 10% Fetal Bovine Serum (Invitrogen). Cells were seeded into assay plate and loaded with calcium dye by adding 30 μl of dye loading buffer according to manufacturer's instruction (Beckton Dickinson Calcium Kit, Cat#80500). The cells were then treated with serial diluted compounds for 30 min before stimulation. Baseline fluorescence was recorded for about 20 seconds followed by stimulation with mouse anti-human IgM (10 μg/mL, clone M2E6, Antibody Solutions Inc.) for Ramos cells, and record of the maximal fluorescent counts in each well. Maximal counts divided by baseline counts, defined as fold change from baseline for each well, was used for IC50 calculation.

[3] = system: B cell CD69 up-regulation in human whole blood; assay: B Cell CD69 Up-Regulation Assay in Human Whole Blood; format: cell-based; conditions: anti-human IgM 50 μg/mL for 20 h, CD69hi CD20+ B cells
Procedure: B Cell CD69 Up-Regulation Assay in Human Whole Blood
Human Blood was collected from healthy volunteers into Vacutainers (BD Biosciences, San Jose, Calif.) containing sodium heparin. Test compound was suspended in DMSO and nine half-log serial dilutions were made. The concentration of […] in the assay was 0.5%. 100 μL whole blood was pre-incubated with compound for 30 min and then stimulated with goat F(ab′)2 anti-human IgM (50 μg/mL, Southern Biotech) for 20 h. At the end of the 20 hour incubation, samples were incubated with fluorochrome-conjugated antibodies, PE mouse anti-human CD20 and APC Mouse anti-human CD69 (BD Biosciences), for 30 minutes. Samples were then lysed with Lyse solution (BD) and washed with PBS containing 2% fetal bovine serum (FBS). Fluorescent signals were acquired on flow cytometer LSR II (BD) and data were analyzed by Flow Jo. The percentage of activated (CD69hi) B-cell lymphocytes (CD20+) were determined using un-stimulated (negative control) and stimulated (positive control) wells as reference guidelines. The percentage inhibition was calculated and an IC50 curve was constructed using GraphPad Prism software with sigmoidal curve fitting.

[4] = read-out: ENZYME_FILTRATION_IC50, SYK 0.5 nM, ATP 20 μM, 33P filtration

Row | Compound | IC50 [1, 4] [nM] | IC50 [2] [nM] | IC50 [3] [nM] | IC50 [1] [nM]
1 | Cc1nc2[nH]cc(C(=O)NC(C)(C)C)c2nc1Nc1cccc(S(C)(=O)=O)c1 [Compound I-35, 2-(3-Methanesulfonyl-phenylamino)-3-methyl-5H-pyrrolo[2,3-b]pyrazine-7-carboxylic acid tert-butylamide] | 2940 | – | – | –
2 | CN(c1cccnc1)c1cnc2[nH]cc(C(=O)NC(C)(C)C)c2n1 [Compound I-21, N-tert-butyl-2-(methyl(pyridin-3-yl)amino)-5H-pyrrolo[2,3-b]pyrazine-7-carboxamide] | 1900 | 4800 | > 50000 | –
3 | Cn1cc(Nc2cnc3[nH]cc(C(=O)NC(C)(C)CO)c3n2)cn1 [Compound I-17, N-(1-hydroxy-2-methylpropan-2-yl)-2-(1-methyl-1H-pyrazol-4-ylamino)-5H-pyrrolo[2,3-b]pyrazine-7-carboxamide] | 49.9 | 207 | 193 | –
4 | Cn1cc2c(n1)CCCN2c1cnc2[nH]cc(C(=O)NC(C)(C)C)c2n1 [Compound I-32, N-tert-butyl-2-(2-methyl-6,7-dihydro-2H-pyrazolo[4,3-b]pyridin-4(5H)-yl)-5H-pyrrolo[2,3-b]pyrazine-7-carboxamide] | 43.7 | 275 | 1140 | –
5 | Cc1cc(Nc2nc3c(C(=O)NC(C)(C)C)c[nH]c3nc2Cl)sn1 [Compound I-38, N-tert-butyl-3-chloro-2-(3-methylisothiazol-5-ylamino)-5H-pyrrolo[2,3-b]pyrazine-7-carboxamide] | 640 | 14900 | – | –
6 | Cc1cc(Nc2nc3c(C(=O)NC(C)(C)C)c[nH]c3nc2C)sn1 [Compound I-36, 3-Methyl-2-(3-methyl-isothiazol-5-ylamino)-5H-pyrrolo[2,3-b]pyrazine-7-carboxylic acid tert-butylamide] | 251 | 1250 | 8300 | –
7 | Cn1ncc2c1CCCN2c1cnc2[nH]cc(C(=O)NC(C)(C)C)c2n1 [Compound I-33, N-tert-butyl-2-(1-methyl-6,7-dihydro-1H-pyrazolo[4,3-b]pyridin-4(5H)-yl)-5H-pyrrolo[2,3-b]pyrazine-7-carboxamide] | 167 | 791 | 1460 | –
8 | COc1ncc(Nc2cnc3[nH]cc(C(=O)NC(C)(C)C)c3n2)cn1 [Compound I-25, N-tert-butyl-2-(2-methoxypyrimidin-5-ylamino)-5H-pyrrolo[2,3-b]pyrazine-7-carboxamide] | 71.2 | 213 | 433 | –
9 | CC(C)(CO)NC(=O)c1c[nH]c2ncc(Nc3cccnc3)nc12 [Compound I-26, N-(1-hydroxy-2-methylpropan-2-yl)-2-(pyridin-3-ylamino)-5H-pyrrolo[2,3-b]pyrazine-7-carboxamide] | 5.6 | 216 | – | –
10 | [2H]c1c([2H])c([2H])c(Nc2cnc3[nH]cc(C(=O)NC(C)(C)C)c3n2)c([2H])c1[2H] [Compound I-37, 2-Phenylamino(D5)-5H-pyrrolo[2,3-b]pyrazine-7-carboxylic acid tert-butylamide] | – | 37.7 | – | 4.8
11 | Cc1ccc(Nc2cnc3[nH]cc(C(=O)NC(C)(C)CO)c3n2)nc1 [Compound I-2, N-(1-hydroxy-2-methylpropan-2-yl)-2-(5-methylpyridin-2-ylamino)-5H-pyrrolo[2,3-b]pyrazine-7-carboxamide] | 27.4 | 245 | 535 | –
12 | Cc1nc2[nH]cc(C(=O)NC(C)(C)C)c2nc1Nc1cnn(C)c1 [Compound I-34, 3-Methyl-2-(1-methyl-1H-pyrazol-4-ylamino)-5H-pyrrolo[2,3-b]pyrazine-7-carboxylic acid tert-butylamide] | – | 2170 | 5120 | –
13 | CC(C)(C)NC(=O)c1c[nH]c2ncc(Nc3cncc(S(C)(=O)=O)c3)nc12 [Compound I-29, N-tert-butyl-2-(5-(methylsulfonyl)pyridin-3-ylamino)-5H-pyrrolo[2,3-b]pyrazine-7-carboxamide] | 228 | 642 | – | –

Other lines, results leading:

Row | IC50 [1, 4] [nM] | IC50 [2] [nM] | IC50 [3] [nM] | IC50 [1] [nM] | Compound
14 | 25.1 | 79.7 | 1340 | – | Cc1cc(Nc2cnc3[nH]cc(C(=O)NC(C)(C)C)c3n2)on1 [Compound I-22, N-tert-butyl-2-(3-methylisoxazol-5-ylamino)-5H-pyrrolo[2,3-b]pyrazine-7-carboxamide]
15 | 18.8 | 223 | 631 | – | CC(N)c1cccc(Nc2cnc3[nH]cc(C(=O)NC(C)(C)C)c3n2)c1 (centres unmarked) [Compound I-27, 2-(3-(1-aminoethyl)phenylamino)-N-tert-butyl-5H-pyrrolo[2,3-b]pyrazine-7-carboxamide]
16 | 17.8 | 251 | – | – | Cc1nsc(Nc2cnc3[nH]cc(C(=O)NC(C)(C)C)c3n2)n1 [Compound I-31, N-tert-butyl-2-(3-methyl-1,2,4-thiadiazol-5-ylamino)-5H-pyrrolo[2,3-b]pyrazine-7-carboxamide]
17 | 934 | – | 6940 | – | CN(C)C(=O)c1ccccc1Nc1cnc2[nH]cc(C(=O)NC(C)(C)C)c2n1 [Compound I-15, N-tert-butyl-2-(2-(dimethylcarbamoyl)phenylamino)-5H-pyrrolo[2,3-b]pyrazine-7-carboxamide]
18 | 5.9 | 93.3 | 418 | – | CC(O)c1cccc(Nc2cnc3[nH]cc(C(=O)NC(C)(C)C)c3n2)c1 (centres unmarked) [Compound I-24, N-tert-butyl-2-(3-(1-hydroxyethyl)phenylamino)-5H-pyrrolo[2,3-b]pyrazine-7-carboxamide]
19 | 13.7 | 110 | 75.8 | – | Cn1cc(Nc2cnc3[nH]cc(C(=O)NC(C)(C)C)c3n2)cn1 [Compound I-5, N-tert-butyl-2-(1-methyl-1H-pyrazol-4-ylamino)-5H-pyrrolo[2,3-b]pyrazine-7-carboxamide]
20 | 2 | 78.9 | 125 | – | Cc1cc(Nc2cnc3[nH]cc(C(=O)NC(C)(C)C)c3n2)sn1 [Compound I-18, N-tert-butyl-2-(3-methylisothiazol-5-ylamino)-5H-pyrrolo[2,3-b]pyrazine-7-carboxamide]
21 | 51.3 | 334 | 422 | – | Cc1cnc(Nc2cnc3[nH]cc(C(=O)NC(C)(C)C)c3n2)cn1 [Compound I-8, N-tert-butyl-2-(5-methylpyrazin-2-ylamino)-5H-pyrrolo[2,3-b]pyrazine-7-carboxamide]
22 | 8.5 | 122 | 627 | – | Cc1ccc(Nc2cnc3[nH]cc(C(=O)NC(C)(C)C)c3n2)nc1 [Compound I-1, N-tert-butyl-2-(5-methylpyridin-2-ylamino)-5H-pyrrolo[2,3-b]pyrazine-7-carboxamide]
23 | 30 | 338 | 506 | – | CC(C)(C)NC(=O)c1c[nH]c2ncc(Nc3ccc(S(C)(=O)=O)cc3)nc12 [Compound I-20, N-tert-butyl-2-(4-(methylsulfonyl)phenylamino)-5H-pyrrolo[2,3-b]pyrazine-7-carboxamide]
24 | 21.1 | 146 | 204 | – | Cn1ccc(Nc2cnc3[nH]cc(C(=O)NC(C)(C)C)c3n2)n1 [Compound I-3, N-tert-butyl-2-(1-methyl-1H-pyrazol-3-ylamino)-5H-pyrrolo[2,3-b]pyrazine-7-carboxamide]
25 | 92.4 | 168 | 375 | – | Cc1c(Nc2cnc3[nH]cc(C(=O)NC(C)(C)C)c3n2)cnn1C [Compound I-16, N-tert-butyl-2-(1,5-dimethyl-1H-pyrazol-4-ylamino)-5H-pyrrolo[2,3-b]pyrazine-7-carboxamide]
26 | 117 | 518 | – | – | Cc1ccc(Nc2cnc3[nH]cc(C(=O)NC(C)(C)C)c3n2)c(C)c1 [Compound I-19, N-tert-butyl-2-(2,4-dimethylphenylamino)-5H-pyrrolo[2,3-b]pyrazine-7-carboxamide]
27 | 121 | 806 | – | – | CC(C)(C)NC(=O)c1c[nH]c2ncc(Nc3ccnc(S(C)(=O)=O)c3)nc12 [Compound I-28, N-tert-butyl-2-(2-(methylsulfonyl)pyridin-4-ylamino)-5H-pyrrolo[2,3-b]pyrazine-7-carboxamide]
28 | 10.9 | 1330 | – | – | Cc1ccc(Nc2cnc3[nH]cc(C(=O)NC(C)(C)C)c3n2)c(F)c1 [Compound I-11, N-tert-butyl-2-(2-fluoro-4-methylphenylamino)-5H-pyrrolo[2,3-b]pyrazine-7-carboxamide]
29 | 16.3 | 64.5 | – | – | CC(C)(C)NC(=O)c1c[nH]c2ncc(Nc3cccnc3)nc12 [Compound I-10, N-tert-butyl-2-(pyridin-3-ylamino)-5H-pyrrolo[2,3-b]pyrazine-7-carboxamide]
